Test results: US20220125051A1, “PRE-HARVEST DESICCATION METHOD” (SYNGENTA CROP PROTECTION AG, priority 2019, published 2022)
Like-named read-outs stand apart in the source and are kept apart here.

Legend:
Assay in all cases: Post-emergence efficacy, Method A
Type in all cases: in vivo
[1] = system: Amaranthus palmeri (AMAPA); conditions: evaluated after 13 days; for pest or weed control at 500 g/ha: Amaranthus palmeri, post-emergence, 312 h
Summary of the method: (§1)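 Post-emergence spray on 14-day-old glasshouse plants (24/16 °C day/night, 14 h photoperiod, 65% humidity). Test material was taken up in acetone and IF50 emulsifier mix, then diluted with sodium lauryl ether sulphate (0.25% or 1%) plus 1% ammonium sulphate. Damage was rated 13 days later, 100 = total.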

[2] = system: Chenopodium album (CHEAL); conditions: evaluated after 13 days; for pest or weed control at 500 g/ha: Chenopodium album, post-emergence, 312 h
Summary of the method: as §1

[3] = system: Digitaria sanguinalis (DIGSA); conditions: evaluated after 13 days; for pest or weed control at 500 g/ha: Digitaria sanguinalis, post-emergence, 312 h
Summary of the method: as §1

[4] = system: Echinochloa crus-galli (ECHCG); conditions: evaluated after 13 days; for pest or weed control at 500 g/ha: Echinochloa crus-galli, post-emergence, 312 h
Summary of the method: as §1

Eleusine indica (ELEIN) = conditions: evaluated after 13 days; for pest or weed control at 500 g/ha: Eleusine indica, post-emergence, 312 h
Summary of the method: as §1

[5] = system: Euphorbia heterophylla (EPHHL); conditions: evaluated after 13 days; for pest or weed control at 500 g/ha: Euphorbia heterophylla, post-emergence, 312 h
Summary of the method: as §1

[6] = system: Ipomoea hederacea (IPOHE); conditions: evaluated after 13 days; for pest or weed control at 500 g/ha: Ipomoea hederacea, post-emergence, 312 h
Summary of the method: as §1

Lolium perenne (LOLPE) = conditions: evaluated after 13 days; for pest or weed control at 500 g/ha: Lolium perenne, post-emergence, 312 h
Summary of the method: as §1

Setaria faberi (SETFA) = conditions: evaluated after 13 days; for pest or weed control at 500 g/ha: Setaria faberi, post-emergence, 312 h
Summary of the method: as §1

[7] = Application rate 500 g/Ha, 100=total damage to plant, 0=no damage to plant, read-out: Control of weed species after post-emergence application, AMAPA
[8] = Application rate 500 g/Ha, 100=total damage to plant, 0=no damage to plant, read-out: Control of weed species after post-emergence application, CHEAL
[9] = Application rate 500 g/Ha, 100=total damage to plant, 0=no damage to plant, read-out: Control of weed species after post-emergence application, DIGSA
[10] = Application rate 500 g/Ha, 100=total damage to plant, 0=no damage to plant, read-out: Control of weed species after post-emergence application, ECHCG
[11] = Application rate 500 g/Ha, 100=total damage to plant, 0=no damage to plant, read-out: Control of weed species after post-emergence application, ELEIN
[12] = Application rate 500 g/Ha, 100=total damage to plant, 0=no damage to plant, read-out: Control of weed species after post-emergence application, EPHHL
[13] = Application rate 500 g/Ha, 100=total damage to plant, 0=no damage to plant, read-out: Control of weed species after post-emergence application, IPOHE
[14] = Application rate 500 g/Ha, 100=total damage to plant, 0=no damage to plant, read-out: Control of weed species after post-emergence application, LOLPE
[15] = Application rate 500 g/Ha, 100=total damage to plant, 0=no damage to plant, read-out: Control of weed species after post-emergence application, SETFA
[16] = Application Rate 500 g/Ha, Method A, read-out: Control of weed species after post-emergence application, AMAPA (100=total damage to plant; 0=no damage to plant)
[17] = Application Rate 500 g/Ha, Method A, read-out: Control of weed species after post-emergence application, CHEAL (100=total damage to plant; 0=no damage to plant)
[18] = Application Rate 500 g/Ha, Method A, read-out: Control of weed species after post-emergence application, DIGSA (100=total damage to plant; 0=no damage to plant)
[19] = Application Rate 500 g/Ha, Method A, read-out: Control of weed species after post-emergence application, ECHCG (100=total damage to plant; 0=no damage to plant)
[20] = Application Rate 500 g/Ha, Method A, read-out: Control of weed species after post-emergence application, ELEIN (100=total damage to plant; 0=no damage to plant)
[21] = Application Rate 500 g/Ha, Method A, read-out: Control of weed species after post-emergence application, EPHHL (100=total damage to plant; 0=no damage to plant)
[22] = Application Rate 500 g/Ha, Method A, read-out: Control of weed species after post-emergence application, IPOHE (100=total damage to plant; 0=no damage to plant)
[23] = Application Rate 500 g/Ha, Method A, read-out: Control of weed species after post-emergence application, LOLPE (100=total damage to plant; 0=no damage to plant)
[24] = Application Rate 500 g/Ha, Method A, read-out: Control of weed species after post-emergence application, SETFA (100=total damage to plant; 0=no damage to plant)
[25] = Application Rate 500 g/Ha, Method A

SMILES	pest or weed control at 500 g/ha [1, 7]	pest or weed control at 500 g/ha [2, 8]	pest or weed control at 500 g/ha [3, 9]	pest or weed control at 500 g/ha [4, 10]	pest or weed control at 500 g/ha (Eleusine indica (ELEIN); [11])	pest or weed control at 500 g/ha [5, 12]	pest or weed control at 500 g/ha [6, 13]	pest or weed control at 500 g/ha (Lolium perenne (LOLPE); [14])	pest or weed control at 500 g/ha (Setaria faberi (SETFA); [15])	also measured
Cc1cccc(-c2cc[n+](CCS(=O)(=O)[O-])nc2)n1 [Compound A75]	60%	30%	50%	50%	60%	60%	20%	50%	70%	
N[C@@H](C[n+]1ccc(-c2ncccn2)cn1)C(=O)O [Compound A208, [(1S)-1-carboxy-2-(4-pyrimidin-2-ylpyridazin-1-ium-1-yl)ethyl]ammonium 2,2,2-trifluoroacetate]										pest or weed control at 500 g/ha [1, 16]: 100%; pest or weed control at 500 g/ha [2, 17]: 80%; pest or weed control at 500 g/ha [3, 18]: 40%; pest or weed control at 500 g/ha [4, 19]: 30%; pest or weed control at 500 g/ha (Eleusine indica (ELEIN); [20]): 60%; pest or weed control at 500 g/ha [5, 21]: 50%; pest or weed control at 500 g/ha [6, 22]: 20%; pest or weed control at 500 g/ha (Lolium perenne (LOLPE); [23]): 10%; pest or weed control at 500 g/ha (Setaria faberi (SETFA); [24]): 60%
COP(=O)(C[n+]1ccc(-c2ncccn2)cn1)OC.O=S(=O)([O-])C(F)(F)F [Compound A238, 1-(dimethoxyphosphorylmethyl)-4-pyrimidin-2-yl-pyridazin-1-ium trifluoromethanesulfonate]										Control of weed species after post-emergence application, AMAPA (100=total damage to plant; 0=no damage to plant) [1, 25]: 50; Control of weed species after post-emergence application, CHEAL (100=total damage to plant; 0=no damage to plant) [2, 25]: 20; Control of weed species after post-emergence application, DIGSA (100=total damage to plant; 0=no damage to plant) [3, 25]: 50; Control of weed species after post-emergence application, ECHCG (100=total damage to plant; 0=no damage to plant) [4, 25]: 40; Control of weed species after post-emergence application, ELEIN (100=total damage to plant; 0=no damage to plant) (Eleusine indica (ELEIN); [25]): 30; Control of weed species after post-emergence application, EPHHL (100=total damage to plant; 0=no damage to plant) [5, 25]: 50; Control of weed species after post-emergence application, IPOHE (100=total damage to plant; 0=no damage to plant) [6, 25]: 40; Control of weed species after post-emergence application, LOLPE (100=total damage to plant; 0=no damage to plant) (Lolium perenne (LOLPE); [25]): 10; Control of weed species after post-emergence application, SETFA (100=total damage to plant; 0=no damage to plant) (Setaria faberi (SETFA); [25]): 50
COC(=O)C(C)[n+]1ccc(-c2ncccn2)cn1 (stereo not drawn) [Compound A192]										pest or weed control at 500 g/ha [1, 16]: 90%; pest or weed control at 500 g/ha [2, 17]: 60%; pest or weed control at 500 g/ha [3, 18]: 30%; pest or weed control at 500 g/ha [4, 19]: 30%; pest or weed control at 500 g/ha (Eleusine indica (ELEIN); [20]): 30%; pest or weed control at 500 g/ha [5, 21]: 40%; pest or weed control at 500 g/ha [6, 22]: 30%; pest or weed control at 500 g/ha (Lolium perenne (LOLPE); [23]): 10%; pest or weed control at 500 g/ha (Setaria faberi (SETFA); [24]): 20%
Cc1nc(-c2cc[n+](CCS(=O)(=O)[O-])nc2)ncc1Cl [Compound A99]	80%	30%	40%	50%	80%	90%	30%	20%	50%	
O=C(O)C(O)C[n+]1ccc(-c2ccncn2)cn1 (stereo not drawn) [Compound A190]										pest or weed control at 500 g/ha [1, 16]: 100%; pest or weed control at 500 g/ha [2, 17]: 80%; pest or weed control at 500 g/ha [3, 18]: 60%; pest or weed control at 500 g/ha [4, 19]: 60%; pest or weed control at 500 g/ha (Eleusine indica (ELEIN); [20]): 70%; pest or weed control at 500 g/ha [5, 21]: 80%; pest or weed control at 500 g/ha [6, 22]: 70%; pest or weed control at 500 g/ha (Lolium perenne (LOLPE); [23]): 40%; pest or weed control at 500 g/ha (Setaria faberi (SETFA); [24]): 40%
N#Cc1ccnc(-c2cc[n+](CCCS(=O)(=O)[O-])nc2)n1 [Compound A147]	40%	50%	20%	30%	20%	70%	60%	40%	40%	
O=S(=O)([O-])CC[n+]1ccc(-c2ncccc2F)cn1 [Compound A68]	60%	70%	40%	70%	70%	100%	50%	60%	60%	
O=P(O)(O)C[n+]1ccc(-c2ccncn2)cn1 [Compound A236]										Control of weed species after post-emergence application, AMAPA (100=total damage to plant; 0=no damage to plant) [1, 25]: 90; Control of weed species after post-emergence application, CHEAL (100=total damage to plant; 0=no damage to plant) [2, 25]: 20; Control of weed species after post-emergence application, DIGSA (100=total damage to plant; 0=no damage to plant) [3, 25]: 80; Control of weed species after post-emergence application, ECHCG (100=total damage to plant; 0=no damage to plant) [4, 25]: 50; Control of weed species after post-emergence application, ELEIN (100=total damage to plant; 0=no damage to plant) (Eleusine indica (ELEIN); [25]): 10; Control of weed species after post-emergence application, EPHHL (100=total damage to plant; 0=no damage to plant) [5, 25]: 30; Control of weed species after post-emergence application, IPOHE (100=total damage to plant; 0=no damage to plant) [6, 25]: 40; Control of weed species after post-emergence application, LOLPE (100=total damage to plant; 0=no damage to plant) (Lolium perenne (LOLPE); [25]): 0; Control of weed species after post-emergence application, SETFA (100=total damage to plant; 0=no damage to plant) (Setaria faberi (SETFA); [25]): 30
CCOP(=O)(O)CC[n+]1ccc(-c2ncccn2)cn1 [Compound A113, ethoxy-[2-(4-pyrimidin-2-ylpyridazin-1-ium-1-yl)ethyl]phosphinate]	40%	90%	60%	60%	40%	100%	60%	10%	50%	
Cc1cc(-c2cc[n+](CCS(=O)(=O)[O-])nc2)ncn1 [Compound A117]	90%	90%	70%	90%	90%	100%	80%	50%	100%	
O=C(O)CC[n+]1ccc(-c2ccc(C(F)(F)F)nn2)cn1 [Compound A126]	100%	80%	80%	80%	90%	100%	30%	70%	100%	
COc1cnc(-c2cc[n+](CCC(=O)[O-])nc2)nc1 [Compound A38]	100%	50%	100%	30%	70%	30%	20%	40%	70%	
